This note sets out measurements from paper PMC7471006, “A Simplified Quantitative Real-Time PCR Assay for Monitoring SARS-CoV-2 Growth in Cell Culture” (mSphere, 2020).

Series [1] relates to Vero E6 cells.
Series [2] has as its system SARS-CoV-2. As to the kind of experiment: SYBR green-based qRT-PCR of SARS-CoV-2 RNA in supernatants of infected Vero E6 cells (compound screen). The format is cell-based. To be noted: for Effect on SARS-CoV-2 viral RNA in supernatants / SARS-CoV-2 replication: MOI 0.01, 24 hpi, result in words; for IC50: Severe acute respiratory syndrome coronavirus 2, Vero C1008, MOI 0.01, 24 hpi, read-out: IC50 (50% inhibitory concentration), SARS-CoV-2 viral RNA in supernatants.

For series [3], the system named is Vero E6 cells. As to the kind of experiment: RealTime-Glo MT cell viability assay (compound cytotoxicity). To be noted: parallel plates, result in words.

Where two headings read alike, the source gives them in different places.

For the molecule `Cc1nc2ccc(Br)cc2c(-c2ccc(Cl)cc2)c1C(OC(C)(C)C)C(=O)O` (stereo not shown) [ALLINI-2], in series [1], the Compound cytotoxicity entry was “without apparent cytotoxicity”. The “Effect on SARS-CoV-2 viral RNA in supernatants / SARS-CoV-2 replication” value in series [2] was “modestly inhibited”.
In the case of `CCN(c1nc(N)c(C(=O)NC(=N)N)nc1Cl)C(C)C` [EIPA, ethylisopropylamiloride], the “Effect on SARS-CoV-2 viral RNA in supernatants / SARS-CoV-2 replication” value in series [2] is recorded as “substantially decreased viral RNA in supernatants at subcytotoxic levels”.
With `CC(C)CN(C[C@@H](O)[C@H](Cc1ccccc1)NC(=O)O[C@H]1CCOC1)S(=O)(=O)c1ccc(N)cc1` [amprenavir], the “Effect on SARS-CoV-2 viral RNA in supernatants / SARS-CoV-2 replication” value in series [2] is listed as “modestly inhibited”. In addition, the Compound cytotoxicity entry in series [3] is “without apparent cytotoxicity”.
On to `Cc1cccc(/C=N/Nc2cc(N3CCOCC3)nc(OCCc3ccccn3)n2)c1` [apilimod], for which the Compound cytotoxicity entry in series [1] is on record as “minimal cytotoxicity”. In series [2] (48 hpi, data not shown), the “Potency on SARS-CoV-2 viral RNA in supernatants compared with 24 hpi” value is on record as “less potent”. For the same molecule, in series [2], the “Effect on SARS-CoV-2 viral RNA in supernatants / SARS-CoV-2 replication” value is on record as “substantially decreased” and the IC50 turned out to be 12 nM.
`Cc1ccnc2c1NC(=O)c1cccnc1N2C1CC1` [nevirapine]: the “Effect on SARS-CoV-2 viral RNA in supernatants / SARS-CoV-2 replication” value in series [2] is given as “modestly inhibited”. Further, in series [3], the Compound cytotoxicity result is listed as “without apparent cytotoxicity”.
Consider `CCC(CC)COC(=O)[C@H](C)N[P@](=O)(OC[C@H]1O[C@@](C#N)(c2ccc3c(N)ncnn23)[C@H](O)[C@@H]1O)Oc1ccccc1` [remdesivir], for which, in series [2], the “Effect on SARS-CoV-2 viral RNA in supernatants / SARS-CoV-2 replication” value is reported as “substantially decreased” and the IC50 turned out to be 2.8 µg/mL.
